In patent US20030207813A1, “Retroviral protease inhibitor combinations” (priority 1995, published 2003):
≈ marks a conversion by molar mass, not a printed value.

test system: RFR (resistant strains selected from RF against Example 1); test: CEM-T4 cell infection assay, reverse transcriptase readout, resistant isolate RFR; assay type: cell-based, HIV-1; conditions: Human immunodeficiency virus 1, CEM-T4, 168 h, Table 4, CEM-T4 cells, 7 days, read-out: Virus Isolate (EC50 ng/mL) RFR
Description: RF represents the HIV-1 strain HIV-LRF and RFR represents a mixture of resistant strains obtained by selection of RF against the compound of Example 1. RFR comprises a mixture of viral strains having protease genotypes of G48V (14/40 clones); G48V, V82A (18/40 clones); G48V, L90S (2/40 clones); G48V, 154T, V82A (1/40 clones); G48M (1/40 clones); G48V, Q61H (1/40 clones); V13I, G48V (1/40 clones); G48V, F53L, V82A (1/40 clones); and G48V, V82A, C95Y (1/40 clones). RFR2 represents a mixture of resistant strains obtained by cloning RFR by three rounds of growth at limiting dilution. RFR2 comprises a mixture of viral strains having protease genotypes of G48V, V82A (13/15 clones); G17E, G48V, V82A (1/15 clones); and G48V, V82A, N37D, N88D (1/15 clones). RFRR represents a mixture of resistant strains obtained by selection of RF against the compounds of Examples 1 and 2 and then cloning by three rounds of growth at limiting dilution. RFRR comprises a mixture of viral strains having protease genotypes of G48V, 154T, L63P, V82A (7/9 clones); G48V, 154T, L63P, V82A, N88S (1/9 clones); and G48V, 154T, L63P, G73M, V82A (1/9 clones). SF162 represents the HIV-1 strain SF-162 and SF162R represents a mixture of resistant strains obtained by selection of SF162 against the compound of Example 1. SF162R comprises a mixture of viral strains having protease genotypes of M461, F53L, L63P, A71V, N88D (2/3 clones); and M46I, F53L, L63P, A71V, N88D, Q92R (1/3 clones). 89-959 represents the HIV-1 strain 89-959 and 89-959R represents a mixture of resistant strains obtained by selection of 89-959 against the compound of Example 2. 89-959R comprises a mixture of viral strains having protease genotypes of N88S (4/5 clones); and D25N, T26A, D30N, D37N, R41K, G73D, R87K, N88S (1/4 clones). NL4 represents the HIV-1 strain HIV-1NL4-3. NL4(G48V) represents a strain having a synthetically generated site-directed mutation in the protease from glycine to valine at amino acid position number 48. NL4(I84V) represents a strain having a synthetically generated site-directed mutation in the protease from isoleucine to valine at amino acid position number 84. NL4(R8Q,M46I) represents a strain having synthetically generated site-directed mutations in the protease from arginine to glutamine at amino acid position number 8 and methionine to isoleucine at amino acid position number 46. NL4(P22-538) represents a mixture of resistant strains obtained by selection of HIV-1NL4-3 against the compound of Example 10 after 22 passages comprising protease genotypes M46I, L63P, A71V, V82F, I84V (4/10); M46I, L63P, V82F, I84V (3/10); and M46I, A71V, V82F, I84V (3/10). NL4(P37-538) represents resistant strains obtained by selection of HIV-1NL4-3 against the compound of Example 10 after 37 passages comprising protease genotype M46I, L63P, A71V, 184A. NL4(538/524) represents resistant strains obtained by selection of NL4(P22-538) against the compound of Example 5 after 24 passages comprising protease genotype M46I, L63P, A71V, 184A. NL4(538/P7-AG) represents a mixture of resistant strains obtained by selection of NL4(P22-538) against the compound of Example 12 after 7 passages comprising protease genotypes M46I, L63P, A71V, 184A; and V321, V82I. NL4(538/P24-AG) represents resistant strains obtained by selection of NL4(P22-538) against the compound of Example 12 after 24 passages comprising protease genotype M46I, L63P, A71V, 184A. NLA(P19-003) represents resistant strains obtained by selection of HIV-1^NL4-3 against the compound of Example 9 after 19 passages comprising protease genotype R8K, M46I. NL4(P34-003) represents resistant strains obtained by selection of HIV-1^NL4-3 against the compound of Example 9 after 34 passages comprising protease genotype R8K, M46I, L63P, A71V, L90M.
The viral isolate resistance results summarized in Tables 4-6 were generated according to the following assay procedure or minor modifications thereof. Assays are performed in 96-well tissue culture plates. […]

SMILES | EC50 [ng/mL]
CC(C)CN(C[C@@H](O)[C@H](Cc1ccccc1)NC(=O)[C@H](CC(N)=O)NC(=O)c1ccc2ccccc2n1)C(=O)NC(C)(C)C (relative stereo) [Example 1, [1S-[1R*(R*),2S*]]-N^1-[3-[[[(1,1-dimethylethyl)amino]carbonyl])2-methylpropyl)amino]-2-hydroxy-1-(phenylmethyl)propyl]-2-[(2-quinolinylcarbonyl)amino]-butanediamide] | 223 (≈ 0.369 µM)
CC(C)(C)NC(=O)[C@@H]1CC2CCCC[C@@H]2CN1C[C@@H](O)[C@H](Cc1ccccc1)NC(=O)[C@H](CC(N)=O)NC(=O)c1ccc2ccccc2n1 (stereo in doubt) [Example 6, N-tert-Butyl decahydro-2-[2(R)-hydroxy-4-phenyl-3(S)-[[N-(2-quinolylcarbonyl)-L-asparaginyl]amino]butyl]-(4aR,8aS)-isoquinoline-3(S)-carboxamide] | 15 (≈ 0.0224 µM)
CNCC(=O)N[C@H](C(=O)N[C@@H](Cc1ccccc1)[C@H](O)CN(CCC(C)C)C(=O)NC(C)(C)C)C(C)(C)C [Example 2, (2R,3S)-3-(N-methylaminoacetyl-L-tert-butylglycinyl)amino-1-(N-isoamyl-N-(tert-butylcarbamoyl))amino-4-phenyl-2-butanol] | 8 (≈ 0.015 µM)
CC(C)(C)NC(=O)[C@@H]1CN(Cc2cccnc2)CCN1C[C@@H](O)C[C@@H](Cc1ccccc1)C(=O)N[C@H]1c2ccccc2C[C@H]1O [Example 5, N-(2(R)-Hydroxy-1(S)-indanyl)-2(R)-phenylmethyl-4(S)-hydroxy-5-(1-(4-(3-pyridylmethyl)-2(S)-N′-(t-butylcarboxamido)-piperazinyl))-pentaneamide] | 7 (≈ 0.0114 µM)

same assay, conditions: Human immunodeficiency virus 1, CEM-T4, 168 h, Table 5, CEM-T4 cells, 7 days, read-out: Virus Isolate (EC50 ng/mL) RFR

SMILES | EC50 [ng/mL]
CC(C)CN(C[C@@H](O)[C@H](Cc1ccccc1)NC(=O)[C@H](CC(N)=O)NC(=O)c1ccc2ccccc2n1)C(=O)NC(C)(C)C (relative stereo) [Example 1, [1S-[1R*(R*),2S*]]-N^1-[3-[[[(1,1-dimethylethyl)amino]carbonyl])2-methylpropyl)amino]-2-hydroxy-1-(phenylmethyl)propyl]-2-[(2-quinolinylcarbonyl)amino]-butanediamide] | 394 (≈ 0.652 µM)
CC(C)CCN(C[C@@H](O)[C@H](Cc1ccccc1)NC(=O)[C@H](CC(N)=O)NC(=O)c1ccc2ccccc2n1)C(=O)NC(C)(C)C (relative stereo) [Example 7, [1S-[1R*(R*),2S*]]-N^1-[3-[[[(1,1-dimethylethyl)amino]carbonyl](3-methylbutyl)amino]-2-hydroxy-1-(phenylmethyl)propyl]-2-[(2-quinolinylcarbonyl)amino]-butanediamide] | 78 (≈ 0.126 µM)
CC(C)CN(C[C@@H](O)[C@H](Cc1ccccc1)NC(=O)[C@H](CC(N)=O)NC(=O)c1ccc2ccccc2n1)S(=O)(=O)NC(C)(C)C [Example 8, N-[3-[N^2-[N^1-(1,1-dimethylethyl)aminosulfonyl]-N^2-(2-methylpropyl)amino]-2R-hydroxy-1S-(phenylmethyl)propyl]-2S-[(2-quinolinylcarbonyl)amino]butanediamide] | 1 (≈ 0.00156 µM)
